Laboratory results taken from the supplement of paper PMC10307832.

How the values were obtained:
Experiment in all cases: relative viability (nuclei count vs DMSO), 5 days (fraction); higher = more cells survive
[1] = compound: NC(=O)[C@@H](CCC(F)(F)F)N(Cc1ccc(-c2ncon2)cc1F)S(=O)(=O)c1ccc(Cl)cc1 [Avagacestat]
How it was run: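 On vehicle-anchored 1536-well plates, lung cancer cell lines held overnight at 37 °C were pinned with five library-drug doses (not always all listed) spaced by √10. With no medium change over 5 days, they were then fixed, permeabilised and Hoechst-stained in one step and imaged at 4×. MetaXpress counted nuclei, and viability is the median across plates of treated-well over vehicle-well nuclei. Acceptance needed control CV below 25% and at least one doubling.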

[2] = compound: NC(=O)[C@@H](CCC(F)(F)F)N(Cc1ccc(-c2ncon2)cc1F)S(=O)(=O)c1ccc(Cl)cc1 [Avagacestat] + CC(=O)Nc1cccc(-n2c(=O)n(C3CC3)c(=O)c3c(Nc4ccc(I)cc4F)n(C)c(=O)c(C)c32)c1 [Trametinib] (partner 0.02 µM)
How it was run: (§1)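 Lung cancer cell lines, seeded in 1536-well plates, were treated the following day by pin tool with a single drug or with five library-drug doses (not always all listed) in √10 steps on top of a fixed anchor-drug dose. Cells were fixed and nuclei stained in one step after 5 days, and nuclei were counted. Relative viability is the nuclei count for treated wells divided by that for vehicle wells, reported as medians of duplicate plates.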

[3] = compound: NC(=O)[C@@H](CCC(F)(F)F)N(Cc1ccc(-c2ncon2)cc1F)S(=O)(=O)c1ccc(Cl)cc1 [Avagacestat] + O=C(c1cc(Cc2n[nH]c(=O)c3ccccc23)ccc1F)N1CCN(C(=O)C2CC2)CC1 [Olaparib] (partner 8 µM)
How it was run: as §1

[4] = compound: NC(=O)[C@@H](CCC(F)(F)F)N(Cc1ccc(-c2ncon2)cc1F)S(=O)(=O)c1ccc(Cl)cc1 [Avagacestat] + N=C(N)NC(=N)NCCc1ccccc1 [Phenformin] (partner 250 µM)
How it was run: as §1

Cell Line	relative viability ([1]; 0.08 µM)	relative viability ([1]; 0.253 µM)	relative viability ([1]; 0.8 µM)	relative viability ([1]; 2.53 µM)	relative viability ([1]; 8 µM)	relative viability ([2]; first compound 0.08 µM)	relative viability ([2]; first compound 0.253 µM)	relative viability ([2]; first compound 0.8 µM)	relative viability ([2]; first compound 8 µM)	relative viability ([3]; first compound 0.08 µM)	relative viability ([3]; first compound 0.253 µM)	relative viability ([3]; first compound 0.8 µM)	relative viability ([3]; first compound 2.53 µM)	relative viability ([3]; first compound 8 µM)	relative viability ([4]; first compound 0.08 µM)	relative viability ([4]; first compound 0.253 µM)	relative viability ([4]; first compound 0.8 µM)	relative viability ([4]; first compound 2.53 µM)	relative viability ([4]; first compound 8 µM)	relative viability ([2]; first compound 2.53 µM)
LK-2	1.28	1.22	0.784	0.604	0.874	1.02	0.917	0.651	0.747	0.846	0.806	0.8	0.505	0.77	0.6	0.36	0.32	0.384	0.375	
NCI-H838	1.03	1.11	1.05	0.894	0.935	0.534	0.607	0.559	0.495	1.08	0.87	0.881	0.805	0.575	0.622	0.537	0.598	0.509	0.484	0.442
HCC-44	0.999	0.999	0.997	0.968	0.935	1.05	1.02	1.05	1.03	1.04	1.05	1.07	1.01	1	0.167	0.171	0.198	0.21	0.195	0.98
IA-LM	1.83	1.62	1.44	1.51	1.26					1.33	1.37	1.15	1.06	1.05						
NCI-H1734	1.04	1.19	1	1.04	0.994	0.776	0.796	0.682	0.633	0.731	0.747	0.614	0.574	0.633	0.451	0.433	0.366	0.373	0.384	0.71
NCI-H1944	1.06	1.15	0.924	0.865	0.922	0.426	0.436	0.373	0.382	0.492	0.448	0.46	0.4	0.421	0.231	0.236	0.226	0.18	0.204	0.394
HCC-366	1.04	1.17	1.07	1.11	1.11	0.446	0.547	0.346	0.27	0.45	0.461	0.378	0.402	0.308	0.654	0.709	0.599	0.562	0.594	0.297
LXF-289	0.995	1.05	1.05	0.994	0.975	0.725	0.656	0.767	0.636	1.41	1.41	1.15	1.08	1.04	0.516	0.505	0.495	0.495	0.476	0.659
NCI-H661	1.02	1.2	1.04	0.85	1.02	0.589	0.632	0.604	0.521	0.795	0.918	0.771	0.774	0.725	0.301	0.293	0.298	0.296	0.3	0.548
A-427	1.12	1.12	1.17	1.07	1.08	0.84	0.898	0.71	0.742	0.832	0.778	0.83	0.684	0.751	0.312	0.27	0.312	0.268	0.296	0.694
COR-L 105	0.955	1.07	0.923	0.876	0.633	0.401	0.45	0.457	0.474	0.724	0.664	0.845	0.601	0.565	0.534	0.407	0.448	0.397	0.429	0.42
NCI-H520	1.04	1.08	1	0.918	0.825	0.814	0.792	0.611	0.616	0.337	0.367	0.335	0.338	0.251	0.648	0.612	0.494	0.436	0.529	0.497
EBC-1	1.07	1.11	1.12	0.942	0.8					0.76	0.868	0.704	0.799	0.537						
NCI-H1648	0.583	0.705	0.513	0.55	0.457	0.443	0.426	0.36	0.32	0.678	0.806	0.516	0.437	0.534						0.318
ABC-1	1.1	1.25	1.26	1.14	0.877					0.904	0.512	0.836	0.776	0.757	0.232	0.228	0.221	0.25	0.263	
A549	1.1	1.37	1.15	1.03	0.993					0.465	0.301	0.622	0.265	0.34	0.276	0.218	0.181	0.226	0.538	
NCI-H1299	1.03	1.11	1.06	1.04	1					0.97	1.07	0.975	0.979	0.929						
NCI-H1563	0.984	0.986	0.968	0.798	0.813										0.665	0.669	0.746	0.646	0.658	
Calu-6	1.15	1.22	1.13	1.07	1.04					0.7	0.862	0.722	0.609	0.585						
